# Laboratory results from US20150025139A1, “INGENOL MEBUTATE IN COMBINATION WITH CRYOTHERAPY FOR THE TREATMENT OF ACTINIC KERATOSIS” (LEO Laboratories Limited, priority 2012, published 2015).
# Experiments:
# [1] = system: actinic keratosis (AK) lesions on the face or scalp; type: in vivo, human
# Procedure: In the context of the present invention partial clearance of AKs are defined as 75% or greater reduction in the number of clinically visible AKs in the selected treatment area from baseline.
# A Phase 3, multi-centre, randomised, two-arm, parallel group, double-blinded, vehicle-controlled, 12-month study is conducted (See FIG. 1). Eligible subjects with 4 to 8 clinically typical, visible and discrete AKs within a contiguous 25 cm^2 treatment area on the face and scalp will be randomised to one of two arms. Treatment Arm A will receive cryotherapy to all visible AKs (4-8 lesions, “baseline lesions”) in the selected treatment area then, after 2-4 weeks healing time, field treatment with ingenol mebutate (PEP005 Gel) 0.015% once daily for 3 consecutive days. Treatment Arm B will receive cryotherapy to all visible AKs (4-8 lesions, “baseline lesions”) in the selected treatment area then, after 3 weeks healing time, field treatment with vehicle gel once daily for 3 consecutive days.
# Eligible subjects include male or female, at least 18 years of age, with 4 to 8 clinically typical, visible, and discrete AK lesions within a 25 cm^2 contiguous treatment area on the face or scalp. Exclusion criteria stipulate restrictions for prohibited treatments and procedures prior to study entry. This sample is representative of the population which will be treated for AK.
# A Phase 3, multi-centre, randomised, two-arm, parallel group, double-blinded, vehicle-controlled, 12-month study is being conducted (See FIG. 1). Eligible subjects with 4 to 8 clinically typical, visible and discrete AKs within a contiguous 25 cm^2 treatment area on the face and scalp were randomised to one of two arms. Treatment Arm A received cryotherapy to all visible AKs (4-8 lesions, “baseline lesions”) in the selected treatment area then, after 2-4 weeks healing time, they received field treatment with ingenol mebutate (PEP005 Gel) 0.015% once daily for 3 consecutive days. […]
# [2] = system: actinic keratosis, face and scalp; conditions: earlier Phase 3 studies, cited from earlier work
# [3] = Phase 3 study: adverse events related to trial medication; type: in vivo, human; conditions: face or scalp, week 11 data
# Procedure: (§1) For safety, AEs and LSRs will be recorded. Local skin responses will be graded using a scale that was developed by the sponsor and used in the previous clinical studies. This is a defined grading scale to ensure that a clear and systematic assessment of LSRs is performed. The LSR Grading Scale employs a 0 to 4 scoring system for each category to be assessed with photographs and definitions of each grade. The LSR Grading Scale has been published previously.
# Local skin responses will be converted into MedDRA preferred terms applying the following conversions seen below. These adverse events will be reported separately from adverse events recorded on the adverse event form in the CRF.
# as §1, with “LSRs were” for “LSRs will be”, “responses were” for “responses will be”, “This was” for “This is”, “grade.” for “grade. The LSR Grading Scale has been published previously.”
# The most common adverse effect is application site pain. None of the severe adverse events were related to trial medication. All adverse effects related to trial medication were resolved at week 11.
# [4] = Phase 3 study: local skin responses (composite LSR score); type: in vivo, human
# Procedure: as §1
# The incidence and grade of LSRs in the LSR safety set will be summarized by treatment arm overall and at each visit by anatomical location. Local skin response grades will be summarized by frequency counts and descriptive statistics by treatment arm and visit for each of the six individual LSRs: erythema, flaking/scaling, crusting, swelling, vesiculation/pustulation, and erosion/ulceration.
# A composite (sum) score will be obtained by summing the six individual LSR scores at each visit. The composite score and change from baseline will be summarized by treatment arm at each visit using descriptive statistics. The first visit at which the highest sum score is attained will be summarized by treatment arm. For those subjects whose LSR sum score increased in intensity from baseline, the first visit at which the LSR returned to the baseline intensity will be presented by treatment arm.
# as §1, with “LSRs were” for “LSRs will be”, “responses were” for “responses will be”, “This was” for “This is”, “grade.” for “grade. The LSR Grading Scale has been published previously.”
structure (smiles),measurement,setting,value
C/C=C(/C)C(=O)O[C@H]1C(C)=C[C@]23C(=O)[C@@H](C=C(CO)[C@@H](O)[C@]12O)[C@H]1[C@@H](C[C@H]3C)C1(C)C [ingenol mebutate],percentage of patients with complete clearance (no clinically visible AKs),[1]; 72 h,60.5%
same,percentage of patients with partial clearance (75% or greater reduction in AKs),[1]; 72 h,77.8%
same,Median percent reduction from baseline in AK lesion count,[1]; week 11,100.0%
same,sustained clearance,[2]; 12 month following treatment,around 50%
same,complete field clearance,[2]; face and scalp,37-47%
same,tolerability of treatment after cryosurgery,[3],well tolerated
same,composite LSR score at baseline,"[4]; baseline, before cryosurgery and topical treatment",2.2
same,mean (SD) composite LSR score at peak,[4]; peak at visit 3,8.5 (4.7)
same,"mean composite LSR score, course after topical treatment","[4]; week 5, 2 weeks after topical treatment",return to a score similar to that of earlier visits
